Among the data in patent US20260217729A1, “HALOGEN-S[…] AMIDE DERIVATIVE, PREPARATION METHOD THEREFOR, AND USE THEREOF” (HANGZHOU ADCORIS BIOPHARMA CO., LTD, priority 2023, published 2026) are IC50 values, retold here.

What all share (format): cell-based
Test [1] relates to human breast cancer cells SK-BR-3. Nature of the test: Tumor cell growth inhibitory activity (CCK-8), SK-BR-3. The following applies: SK-BR-3 cells, 72 h incubation, read-out: IC50 for inhibiting the growth of tumor cells, SK-BR-3. The protocol: (§1) Human esophageal cancer cells OE33, human breast cancer cells MDA-MB-231, human gastric cancer cells NCI-N87, human lung cancer cells NCI-H1975, human esophageal cancer cells TE12, human breast cancer cells SK-BR-3, etc., were cultured in RPMI1640 (Cellmax) supplemented with 10% fetal bovine serum (Cellmax). Tumor cells in the exponential growth phase were diluted to a concentration of 1×10^5 cells/mL with culture medium and added to 96-well cell culture plates at 100 μL per well, then returned and incubated overnight in a 37° C. incubator with 5% CO2. On the following day, the compounds were diluted to concentrations of 10000 nM, 2000 nM, 400 nM, 80 nM, 16 nM, 3.2 nM, 0.64 nM, and 0.13 nM with culture medium, and the diluted compounds were added to the 96-well cell culture plates at 2 μL per well, with three replicate wells for each concentration. Negative control and blank control groups without addition of compounds were added with 2 μL of the dilution liquid per well. After the addition of the compounds, the plates were returned to the 37° C. incubator with 5% CO2 to continue the incubation for 72 h. After the incubation, the cell culture plates were removed, and the culture medium in the plates was aspirated using a pipette. Then, 100 μL of culture medium containing 10% CCK-8 was added to each well, and the plates were incubated at 37° C. for 3 h. After the incubation, the plates were removed, kept in the dark, and placed in an ELISA plate. Absorbance was measured at 630 nm as the reference wavelength and 450 nm as the test wavelength. Based on the absorbance values, the IC50 values (Table 1) were calculated using the four-parameter logistic regression method in GraphPad.

For test [2], the system named is Human esophageal cancer cells OE33. Nature of the test: Tumor cell growth inhibitory activity (CCK-8), OE33. The settings on record: 72 h incubation, read-out: IC50 for inhibiting the growth of tumor cells, OE33. The protocol:
as §1

The subject of test [3] is human lung cancer cells NCI-H1975. Description: Tumor cell growth inhibitory activity (CCK-8), NCI-H1975. The settings on record: 72 h incubation, read-out: IC50 for inhibiting the growth of tumor cells, NCI-H1975. As for the experimental part: as §1
Test [4] relates to human esophageal cancer cells TE12. Nature of the test: Tumor cell growth inhibitory activity (CCK-8), TE12. The settings on record: 72 h incubation, read-out: IC50 for inhibiting the growth of tumor cells, TE12. The protocol: as §1
Test [5] deals with human gastric cancer cells NCI-N87. Nature of the test: Tumor cell growth inhibitory activity (CCK-8), NCI-N87. The settings on record: 72 h incubation, read-out: IC50 for inhibiting the growth of tumor cells, NCI-N87. As for the experimental part:
as §1

Test [6] has as its system human breast cancer cells MDA-MB-231. Description: Tumor cell growth inhibitory activity (CCK-8), MDA-MB-231. The following applies: MDA-MB-231 cells, 72 h incubation, read-out: IC50 for inhibiting the growth of tumor cells, MDA-MB-231. As for the experimental part:
as §1

Like-named read-outs stand apart in the source and are kept apart here.

For orientation: IC50 means the concentration that inhibits the measured activity by half. On to `CC[C@@]1(O)C(=O)OCc2c1cc1n(c2=O)Cc2c-1nc1cc(F)c(C)c3c1c2[C@@H](NC(=O)C(F)C(N)=O)CC3` (stereo partly drawn) [Compound 1, N-(2′-fluoro-3′-amino-3′-oxo-propanoyl) exatecan], for which the IC50 in test [1] is 18 nM; in test [2], 37.8 nM; in test [3], 598 nM; in test [4] it was 341 nM; in test [5] it was 12.1 nM; in test [6], above 1000 nM.
`CC[C@@]1(O)C(=O)OCc2c1cc1n(c2=O)Cc2c-1nc1cc(F)c(C)c3c1c2[C@@H](NC(=O)CNCC(F)(F)F)CC3` [Compound 2, N—(N-(2′-trifluoroethyl)aminoacetyl)exatecan]: the IC50 was 1 nM in test [1]; 1.09 nM in test [2]; 47.3 nM in test [3]; 12.7 nM in test [4]; 0.443 nM in test [5]; 238 nM in test [6].
For the molecule `CC[C@@]1(O)C(=O)OCc2c1cc1n(c2=O)Cc2c-1nc1cc(F)c(C)c3c1c2[C@@H](NC(=O)C(N)C(F)(F)F)CC3` (stereo partly drawn) [Compound 3, 2′-amino-3′,3′,3′-trifluoropropanoyl exatecan], the IC50 was 3.01 nM in test [1] (Homo sapiens); 5.61 nM in test [2] (Homo sapiens); 56.2 nM in test [3] (Homo sapiens); 21.1 nM in test [4] (Homo sapiens); 1.74 nM in test [5] (Homo sapiens); 262 nM in test [6] (Homo sapiens).
As for `CC[C@@]1(O)C(=O)OCc2c1cc1n(c2=O)Cc2c-1nc1cc(F)c(C)c3c1c2[C@@H](NC(=O)[C@@H]1CC(F)(F)CN1)CC3` [Compound 4, 4′,4′-difluoroprolyl exatecan], the IC50 turned out to be 0.35 nM in test [1] (Homo sapiens); 0.755 nM in test [2] (Homo sapiens); 40.6 nM in test [3] (Homo sapiens); 11.2 nM in test [4] (Homo sapiens); 0.101 nM in test [5] (Homo sapiens); 200 nM in test [6] (Homo sapiens).
For the molecule `CC[C@@]1(O)C(=O)OCc2c1cc1n(c2=O)Cc2c-1nc1cc(F)c(C)c3c1c2[C@@H](NC(=O)C(F)F)CC3` [Compound 5, 2′,2′-difluoroacetyl exatecan], the IC50 in test [1] (Homo sapiens) worked out at 2.06 nM; in test [2] (Homo sapiens), 4.34 nM; in test [3] (Homo sapiens), 13.7 nM; in test [4] (Homo sapiens), 18.5 nM; in test [5] (Homo sapiens), 0.873 nM; in test [6] (Homo sapiens), 403 nM.
`CC[C@@]1(O)C(=O)OCc2c1cc1n(c2=O)Cc2c-1nc1cc(F)c(C)c3c1c2[C@H](NC(=O)C(C)(F)F)CC3` [Compound 6, 2′,2′-difluoropropionyl exatecan]: the IC50 in test [1] (Homo sapiens) was 0.32 nM; in test [2] (Homo sapiens), 0.615 nM; in test [3] (Homo sapiens), 38.5 nM; in test [4] (Homo sapiens) it was 7.61 nM; in test [5] (Homo sapiens), 0.165 nM; in test [6] (Homo sapiens), 143 nM.
Turning to `CC[C@@]1(O)C(=O)OCc2c1cc1n(c2=O)Cc2c-1nc1cc(F)c(C)c3c1c2[C@@H](NC(=O)CO)CC3` [Dxd, reference compound], the IC50 was 4.46 nM in test [1] (Homo sapiens); 6.55 nM in test [2] (Homo sapiens); 73.6 nM in test [3] (Homo sapiens); 21.5 nM in test [4] (Homo sapiens); 1.35 nM in test [5] (Homo sapiens); 207 nM in test [6] (Homo sapiens).
